Source: patent publication US20110166194A1, “Asenapine Prodrugs” (Alkermes, Inc., priority 2010, published 2011)

How the values were obtained:
[1] = Pharmacokinetic evaluation of asenapine and asenapine prodrugs in rats; format: in vivo, Sprague-Dawley rats; conditions: rat plasma, 10 mg/rat IM, suspension in 1% HPMC in PBS saline with 0.2% Tween pH 6.0; FIG. 3
Procedure: Animals: 18 Male Sprague-Dawley rats (Charles River Laboratories, Wilmington, Mass.) were used in the study. Three groups of 6 rats were used and are referred to in this study as Groups A, B and C. Rats were approximately 350-375 g at time of arrival. Rats are housed 2 per cage with ad libitum chow and water. Environmental conditions in the housing room: 64-67° F., 30% to 70% relative humidity, and 12:12-h light:dark cycle. All experiments were approved by the institutional animal care and use committee.
Test Compounds: The following formulations of Asenapine parent drug and prodrug compounds of the invention were used in the study.
Pharmacokinetics study: Rats were dosed IM by means of a 23 gauge, 1 in. needle with 1 cc syringe 0.3 mL suspension was withdrawn from the vial containing the test compound. The rat was injected in the muscles of the hind limb after anesthesia with isoflourane. Blood samples were collected via a lateral tail vein after brief anesthesia with Isoflurane. A 27½G needle and 1 cc syringe without an anticoagulant was used for the blood collection. […]
Data Analysis: Drug concentrations in plasma samples were analyzed by liquid chromatography—mass spectroscopy using appropriate parameters for each compound. Half-life, volume of distribution, clearance, maximal concentration, and AUC were calculated by using WinNonlin version 5.2 software (Pharsight, St. Louis, Mo.).

[2] = system: muscarinic receptors; conditions: background; cited from earlier work
[3] = system: serotonergic (5-HT2A, 5-HT2C, 5-HT6, 5-HTS), noradrenergic (α2A, α2B, α2C) and dopaminergic (D3, D4) receptors; conditions: background; cited from earlier work
[4] = Solution stability of asenapine prodrugs as a function of pH; format: physicochemical; conditions: 0.01M buffers pH 2.11-9.01, 25° C., HPLC after 1, 4, 10 and 24 hours; FIG. 1 and 2
Procedure: The asenapine derived prodrugs were prepared at approximately 300 ug/mL in buffers (see table of buffers below). The initial ratio of prodrug/parent was measured using a freshly prepared solution in unbuffered water. Acetonitrile was titrated into all samples as needed to ensure the complete dissolution of the compounds. The amount of acetonitrile varied depending on the solubility of each compound (see Note 1). 1.5 mL of each stability sample was transferred into a HPLC vial and the vials were maintained at 25° C. in the temperature controlled sample compartment of the HPLC. Each sample was assayed by HPLC after 1, 4, 10, and 24 hours for prodrug and asenapine content (see Note 2).
The fraction of prodrug remaining at each time point was calculated as;
Fraction Prodrug=(HPLC Area of Prodrug)/(HPLC area of prodrug+asenapine) (see Note 3).
The loss of prodrug was then fit to the equation for first order decay:
Fraction Prodrug=(Initial Fraction prodrug)*e^−kt
where t=time (in hours) and k is the rate constant for decay. Finally, the half-lives are were calculated as
Note 1: The acetonitrile concentration is not expected to have a large impact on the degradation rate since the rate follows first order decay with respect to compound (ie, the rate constant is independent of the concentration). […]

## CCC(C)(C)C(=O)OC[N+]1(C)CC2c3ccccc3Oc3ccc(Cl)cc3C2C1.[I-] (stereo not shown) [ASN-83, Asenapine dimethyl butyrate prodrug]
[1]
  Cmax: lower than the Cmax of the parent Asenapine formulation as well as lower than that of the Asenapine palmitate prodrug (ASN-76)

## CN1CC2c3ccccc3Oc3ccc(Cl)cc3C2C1 (stereo not shown) [Asenapine]
[2]
  Affinity: minimal affinity
[3]
  Affinity relative to D2 receptors: higher affinity

## CC(C)(C)C(=O)OC[N+]1(C)CC2c3ccccc3Oc3ccc(Cl)cc3C2C1.[Cl-] (stereo not shown) [asenapine pivalate]
[4]
  Solution stability (loss of prodrug to asenapine): more stable than the asenapine octanoate
